Our source for the MIC values is ChEMBL document CHEMBL5518248, “Design, Synthesis, and Biological Evaluation of Novel Arylomycins against Multidrug-Resistant Gram-Negative Bacteria” (J Med Chem, 2024).

What all share (format): functional
What all share (details): time 18-20 hrs

The subject of assay [1] is Acinetobacter baumannii. Kind of assay: Antibacterial activity against Acinetobacter baumannii 17-8 assessed as inhibition of bacterial growth measured after 18 to 20 hrs by broth microdilution method.
Assay [2] relates to Escherichia coli. Description: Antibacterial activity against Escherichia coli ATCC 35218 assessed as inhibition of bacterial growth measured after 18 to 20 hrs by broth microdilution method.
Assay [3] relates to Pseudomonas aeruginosa. Description: Antibacterial activity against Pseudomonas aeruginosa 19-5 assessed as inhibition of bacterial growth measured after 18 to 20 hrs by broth microdilution method.
Assay [4] has as its system Klebsiella pneumoniae. Kind of assay: Antibacterial activity against Klebsiella pneumoniae 15-1 assessed as inhibition of bacterial growth measured after 18 to 20 hrs by broth microdilution method.
In assay [5] the test system is Escherichia coli. Description: Antibacterial activity against Escherichia coli 14-2 assessed as inhibition of bacterial growth measured after 18 to 20 hrs by broth microdilution method.
The subject of assay [6] is Pseudomonas aeruginosa. Description: Antibacterial activity against Pseudomonas aeruginosa 17-1 assessed as inhibition of bacterial growth measured after 18 to 20 hrs by broth microdilution method.
Assay [7] deals with Escherichia coli. Description: Antibacterial activity against Escherichia coli 14-4 assessed as inhibition of bacterial growth measured after 18 to 20 hrs by broth microdilution method.
Assay [8] has as its system Klebsiella pneumoniae. Kind of assay: Antibacterial activity against Klebsiella pneumoniae 15-4 assessed as inhibition of bacterial growth measured after 18 to 20 hrs by broth microdilution method.
Assay [9] relates to Klebsiella pneumoniae. Description: Antibacterial activity against Klebsiella pneumoniae 15-5 assessed as inhibition of bacterial growth measured after 18 to 20 hrs by broth microdilution method.
Assay [10] relates to Acinetobacter baumannii. Kind of assay: Antibacterial activity against Acinetobacter baumannii 17-2 assessed as inhibition of bacterial growth measured after 18 to 20 hrs by broth microdilution method.

Each structure is given as a SMILES string.

As for `Cc1nc(-c2ccc(C(C)(C)C)cc2)ncc1CC(=O)N[C@@H](CCN)C(=O)N(C)[C@@H]1C(=O)N[C@@H](C)C(=O)N[C@H](C(=O)NCC#N)Cc2ccc(OCCN)c(c2)-c2cc1ccc2OCCN.O=C(O)C(F)(F)F.O=C(O)C(F)(F)F.O=C(O)C(F)(F)F.O=C(O)C(F)(F)F`, the MIC in assay [1] is 8 µg/mL; in [2], 16 µg/mL; in [3] it was above 64 µg/mL; in assay [4] it was above 64 µg/mL; in assay [5], 16 µg/mL; in [6], above 64 µg/mL. In addition, the MIC in [7] was 16 µg/mL; in assay [8] it was above 64 µg/mL; in assay [9] it was above 64 µg/mL; in assay [10], 64 µg/mL.

Regarding `Cc1nc(-c2ccc(C(C)(C)C)cc2)ncc1C(=O)C(=O)N[C@@H](CCN)C(=O)N(C)[C@@H]1C(=O)N[C@@H](C)C(=O)N[C@H](C(=O)NCC#N)Cc2ccc(OCCN)c(c2)-c2cc1ccc2OCCN.O=C(O)C(F)(F)F.O=C(O)C(F)(F)F.O=C(O)C(F)(F)F.O=C(O)C(F)(F)F`, the MIC in assay [1] was 1 µg/mL; in assay [2] it was 2 µg/mL; in assay [3], 64 µg/mL; in assay [4] it was 8 µg/mL; in assay [5], 2 µg/mL; in assay [6] it was 32 µg/mL. In addition, the MIC in [7] was 2 µg/mL; in [8] it was 16 µg/mL; in assay [9] it was 8 µg/mL; in assay [10], 4 µg/mL.

Take `CCCCCCCSSCc1ccc(-c2ncc(C(=O)N[C@@H](CCN)C(=O)N(C)[C@@H]3C(=O)N[C@@H](C)C(=O)N[C@H](C(=O)NCC#N)Cc4ccc(OCCN)c(c4)-c4cc3ccc4OCCN)c(C)n2)cc1.O=C(O)C(F)(F)F.O=C(O)C(F)(F)F.O=C(O)C(F)(F)F.O=C(O)C(F)(F)F`: the MIC was 2 µg/mL in assay [1]; 2 µg/mL in assay [2]; 4 µg/mL in assay [3]; 2 µg/mL in [4]; 1 µg/mL in assay [5]; 4 µg/mL in assay [6]. The MIC in [7] amounted to 1 µg/mL; in [8], 2 µg/mL; in [9], 2 µg/mL; in assay [10], 2 µg/mL.

As for `Cc1nc(-c2ccc([C@@H](C)SSC(C)(C)C)cc2)ncc1C(=O)N[C@@H](CCN)C(=O)N(C)[C@@H]1C(=O)N[C@@H](C)C(=O)N[C@H](C(=O)NCC#N)Cc2ccc(OCCN)c(c2)-c2cc1ccc2OCCN.O=C(O)C(F)(F)F.O=C(O)C(F)(F)F.O=C(O)C(F)(F)F.O=C(O)C(F)(F)F`, the MIC was 0.5 µg/mL in [1]; at most 0.03 µg/mL in assay [2]; 4 µg/mL in assay [3]; 0.25 µg/mL in assay [4]; at most 0.03 µg/mL in assay [5]; 4 µg/mL in [6]. The MIC in [7] is at most 0.03 µg/mL; in assay [8] it was 0.25 µg/mL; in [9], 0.125 µg/mL; in [10], 0.5 µg/mL.

For `CCSSc1ccc(-c2ncc(C(=O)N[C@@H](CCN)C(=O)N(C)[C@@H]3C(=O)N[C@@H](C)C(=O)N[C@H](C(=O)NCC#N)Cc4ccc(OCCN)c(c4)-c4cc3ccc4OCCN)c(C)n2)cc1.O=C(O)C(F)(F)F.O=C(O)C(F)(F)F.O=C(O)C(F)(F)F.O=C(O)C(F)(F)F`, the MIC was 1 µg/mL in assay [1]; at most 0.03 µg/mL in assay [2]; 8 µg/mL in assay [3]; 0.06 µg/mL in [4]; 0.125 µg/mL in assay [5]; 8 µg/mL in [6]. The MIC in assay [7] came to 0.06 µg/mL; in [8], 0.125 µg/mL; in assay [9], 0.125 µg/mL; in [10], 2 µg/mL.

On to `CCSSCc1ccc(-c2ncc(C(=O)N[C@@H](CCN)C(=O)N(C)[C@@H]3C(=O)N[C@@H](C)C(=O)N[C@H](C(=O)NCC#N)Cc4ccc(OCCN)c(c4)-c4cc3ccc4OCCN)c(C)n2)cc1.O=C(O)C(F)(F)F.O=C(O)C(F)(F)F.O=C(O)C(F)(F)F.O=C(O)C(F)(F)F`, for which the MIC is 0.5 µg/mL in [1]; at most 0.03 µg/mL in [2]; 16 µg/mL in assay [3]; 0.06 µg/mL in [4]; 0.06 µg/mL in assay [5]; 8 µg/mL in assay [6]. Moreover, the MIC is at most 0.03 µg/mL in [7], 0.125 µg/mL in [8], 0.125 µg/mL in [9] and 1 µg/mL in assay [10].

Regarding `Cc1nc(-c2ccc(C(C)(C)SSC(C)(C)C)cc2)ncc1C(=O)N[C@@H](CCN)C(=O)N(C)[C@@H]1C(=O)N[C@@H](C)C(=O)N[C@H](C(=O)NCC#N)Cc2ccc(OCCN)c(c2)-c2cc1ccc2OCCN.O=C(O)C(F)(F)F.O=C(O)C(F)(F)F.O=C(O)C(F)(F)F.O=C(O)C(F)(F)F`, the MIC in assay [1] is 0.5 µg/mL; in assay [2], at most 0.03 µg/mL; in [3], 4 µg/mL; in assay [4], 0.125 µg/mL; in [5], at most 0.03 µg/mL; in [6], 4 µg/mL. Besides, the MIC is at most 0.03 µg/mL in assay [7], 0.25 µg/mL in assay [8], 0.25 µg/mL in assay [9] and 1 µg/mL in assay [10].

For the molecule `CCCCSSc1ccc(-c2ncc(C(=O)N[C@@H](CCN)C(=O)N(C)[C@@H]3C(=O)N[C@@H](C)C(=O)N[C@H](C(=O)NCC#N)Cc4ccc(OCCN)c(c4)-c4cc3ccc4OCCN)c(C)n2)cc1.O=C(O)C(F)(F)F.O=C(O)C(F)(F)F.O=C(O)C(F)(F)F.O=C(O)C(F)(F)F`, the MIC was 0.25 µg/mL in [1]; at most 0.03 µg/mL in [2]; 4 µg/mL in [3]; 0.25 µg/mL in assay [4]; 0.06 µg/mL in assay [5]; 2 µg/mL in assay [6]. Further, the MIC in assay [7] is 0.125 µg/mL; in [8], 0.25 µg/mL; in assay [9] it was 0.125 µg/mL; in assay [10], 0.5 µg/mL.

For the molecule `Cc1nc(-c2ccc(C(C)(C)C)cc2)ncc1CN[C@@H](CCN)C(=O)N(C)[C@@H]1C(=O)N[C@@H](C)C(=O)N[C@H](C(=O)NCC#N)Cc2ccc(OCCN)c(c2)-c2cc1ccc2OCCN.O=C(O)C(F)(F)F.O=C(O)C(F)(F)F.O=C(O)C(F)(F)F.O=C(O)C(F)(F)F`, the MIC in assay [1] was 2 µg/mL; in assay [2] it was 0.5 µg/mL; in [3], above 64 µg/mL; in assay [4], 16 µg/mL; in assay [5], 4 µg/mL; in [6] it was 64 µg/mL. Also, the MIC is 2 µg/mL in assay [7], 32 µg/mL in [8], 16 µg/mL in [9] and 8 µg/mL in assay [10].

`Cc1nc(-c2ccc(C(C)(C)C)cc2)ncc1C(=O)N[C@@H](CCN)C(=O)N(C)[C@@H]1C(=O)N[C@@H](C)C(=O)N[C@H](NC(=O)NCC#N)Cc2ccc(OCCN)c(c2)-c2cc1ccc2OCCN.O=C(O)C(F)(F)F.O=C(O)C(F)(F)F.O=C(O)C(F)(F)F.O=C(O)C(F)(F)F`: the MIC in assay [1] was above 64 µg/mL; in [2], 32 µg/mL; in [3] it was above 64 µg/mL; in [4], above 64 µg/mL; in assay [5] it was 64 µg/mL; in [6] it was above 64 µg/mL. Moreover, the minimum inhibitory concentration (MIC) in assay [7] is 64 µg/mL; in [8], above 64 µg/mL; in assay [9], above 64 µg/mL; in assay [10] it was above 64 µg/mL.

For `Cc1nc(-c2ccc(C3SCCS3)cc2)ncc1C(=O)N[C@@H](CCN)C(=O)N(C)[C@@H]1C(=O)N[C@@H](C)C(=O)N[C@H](C(=O)NCC#N)Cc2ccc(OCCN)c(c2)-c2cc1ccc2OCCN.O=C(O)C(F)(F)F.O=C(O)C(F)(F)F.O=C(O)C(F)(F)F.O=C(O)C(F)(F)F`, the MIC in assay [1] stood at 2 µg/mL; in [2], 0.06 µg/mL; in assay [3], 64 µg/mL; in assay [4], 0.25 µg/mL; in assay [5] it was 0.125 µg/mL; in assay [6] it was 32 µg/mL. Further, the MIC stood at 0.125 µg/mL in assay [7], 1 µg/mL in assay [8], 0.25 µg/mL in [9] and 8 µg/mL in assay [10].
